From ChEMBL document CHEMBL3885861, “Open TG-GATES”

Species: Rattus norvegicus
Assay: Open TG-GATES - Regimen: Single
Assay type: toxicity, organism-based, Sprague-Dawley
Design: regimen Single, gender Male, age 6 weeks
Details: in vivo, iv, route intravenous injection; for Bas / Eos / Hb / Ht / Lym / MCH / MCHC / MCV / Mono / Neu / Plat / RBC / Ret: tissue Blood; for KIDNEY_L / KIDNEY_R / KIDNEY_TOTAL: tissue Kidney; for ALT / AST / CRE / DBIL / GLC / K / LDH / Na / PL / RALB / TBIL / TC / TP / gamma-GTP: tissue Plasma
[1] = 0 mg/kg, 3 h, dose level Control
[2] = 0 mg/kg, 6 h, dose level Control
[3] = 0 mg/kg, 9 h, dose level Control
[4] = 0 mg/kg, 24 h, dose level Control

CC(C)C[C@H](NC(=O)[C@H](Cc1ccccc1)NC(=O)c1cnccn1)B(O)O [BORTEZOMIB]
TERMINAL_BW [1]: 223 g
Bas [1]: 0%
Eos [1]: 0.8%
Hb [1]: 13.9 g/dL
Ht [1]: 39.5%
Lym [1]: 81.4%
MCH [1]: 22.9 pg
MCHC [1]: 35.2%
MCV [1]: 65.1 fL
Mono [1]: 2.6%
Neu [1]: 14.8%
Plat [1]: 124.1 x10_4/uL
RBC [1]: 607 x10_4/ul
Ret [1]: 9.3%
KIDNEY_L [1]: 0.9 g
KIDNEY_R [1]: 0.9 g
KIDNEY_TOTAL [1]: 1.9 g
ALT [1]: 38.6 IU/L
AST [1]: 70.4 IU/L
CRE [1]: 0.2 mg/dL
DBIL [1]: 0 mg/dL
GLC [1]: 191.2 mg/dL
K [1]: 3.9 meq/L
LDH [1]: 175.8 IU/L
Na [1]: 142.3 meq/L
PL [1]: 138.6 mg/dL
RALB [1]: 4.1 g/dL
TBIL [1]: 0.006 mg/dL
TC [1]: 74.6 mg/dL
TP [1]: 5.6 g/dL
gamma-GTP [1]: 0.7 IU/L
TERMINAL_BW [2]: 220.7 g
Bas [2]: 0%
Eos [2]: 0.4%
Hb [2]: 13.7 g/dL
Ht [2]: 38.8%
Lym [2]: 77.6%
MCH [2]: 22.1 pg
MCHC [2]: 35.4%
MCV [2]: 62.5 fL
Mono [2]: 2.8%
Neu [2]: 18.4%
Plat [2]: 117.1 x10_4/uL
RBC [2]: 622.4 x10_4/ul
Ret [2]: 8.7%
KIDNEY_L [2]: 1 g
KIDNEY_R [2]: 1 g
KIDNEY_TOTAL [2]: 2 g
ALT [2]: 37 IU/L
AST [2]: 78.8 IU/L
CRE [2]: 0.2 mg/dL
DBIL [2]: 0 mg/dL
GLC [2]: 176.6 mg/dL
K [2]: 4.4 meq/L
LDH [2]: 219.2 IU/L
Na [2]: 141.6 meq/L
PL [2]: 141.4 mg/dL
RALB [2]: 4 g/dL
TBIL [2]: 0.014 mg/dL
TC [2]: 75.4 mg/dL
TP [2]: 5.6 g/dL
gamma-GTP [2]: 0.8 IU/L
TERMINAL_BW [3]: 222.6 g
Bas [3]: 0%
Eos [3]: 1%
Hb [3]: 14 g/dL
Ht [3]: 40.5%
Lym [3]: 71%
MCH [3]: 22.2 pg
MCHC [3]: 34.5%
MCV [3]: 64.3 fL
Mono [3]: 3.4%
Neu [3]: 24.4%
Plat [3]: 108.5 x10_4/uL
RBC [3]: 630.2 x10_4/ul
Ret [3]: 9.3%
KIDNEY_L [3]: 1 g
KIDNEY_R [3]: 1 g
KIDNEY_TOTAL [3]: 1.9 g
ALT [3]: 39.8 IU/L
AST [3]: 78 IU/L
CRE [3]: 0.2 mg/dL
DBIL [3]: 0 mg/dL
GLC [3]: 179.4 mg/dL
K [3]: 3.9 meq/L
LDH [3]: 187.2 IU/L
Na [3]: 141.5 meq/L
PL [3]: 139 mg/dL
RALB [3]: 3.9 g/dL
TBIL [3]: 0.022 mg/dL
TC [3]: 78.6 mg/dL
TP [3]: 5.5 g/dL
gamma-GTP [3]: 0.8 IU/L
TERMINAL_BW [4]: 236.7 g
Bas [4]: 0%
Eos [4]: 0.6%
Hb [4]: 13.8 g/dL
Ht [4]: 38.2%
Lym [4]: 81.2%
MCH [4]: 22.9 pg
MCHC [4]: 36.1%
MCV [4]: 63.5 fL
Mono [4]: 3%
Neu [4]: 14.6%
Plat [4]: 113.7 x10_4/uL
RBC [4]: 603 x10_4/ul
Ret [4]: 8%
KIDNEY_L [4]: 1.1 g
KIDNEY_R [4]: 1 g
KIDNEY_TOTAL [4]: 2.1 g
ALT [4]: 42 IU/L
AST [4]: 74.4 IU/L
CRE [4]: 0.2 mg/dL
DBIL [4]: 0 mg/dL
GLC [4]: 182.4 mg/dL
K [4]: 4.2 meq/L
LDH [4]: 190.4 IU/L
Na [4]: 140.8 meq/L
PL [4]: 146.4 mg/dL
RALB [4]: 4 g/dL
TBIL [4]: 0.002 mg/dL
TC [4]: 74.2 mg/dL
TP [4]: 5.7 g/dL
gamma-GTP [4]: 1 IU/L
TERMINAL_BW (1 mg/kg, 3 h, dose level High): 228.6 g
Bas (1 mg/kg, 3 h, dose level High): 0%
Eos (1 mg/kg, 3 h, dose level High): 0.6%
Hb (1 mg/kg, 3 h, dose level High): 14.6 g/dL
Ht (1 mg/kg, 3 h, dose level High): 41.1%
Lym (1 mg/kg, 3 h, dose level High): 73%
MCH (1 mg/kg, 3 h, dose level High): 22.6 pg
MCHC (1 mg/kg, 3 h, dose level High): 35.4%
MCV (1 mg/kg, 3 h, dose level High): 63.7 fL
Mono (1 mg/kg, 3 h, dose level High): 2.2%
Neu (1 mg/kg, 3 h, dose level High): 23.8%
Plat (1 mg/kg, 3 h, dose level High): 121.1 x10_4/uL
RBC (1 mg/kg, 3 h, dose level High): 645.8 x10_4/ul
Ret (1 mg/kg, 3 h, dose level High): 8.6%
KIDNEY_L (1 mg/kg, 3 h, dose level High): 0.9 g
KIDNEY_R (1 mg/kg, 3 h, dose level High): 1 g
KIDNEY_TOTAL (1 mg/kg, 3 h, dose level High): 1.9 g
ALT (1 mg/kg, 3 h, dose level High): 60 IU/L
AST (1 mg/kg, 3 h, dose level High): 123.6 IU/L
CRE (1 mg/kg, 3 h, dose level High): 0.2 mg/dL
DBIL (1 mg/kg, 3 h, dose level High): 0.008 mg/dL
GLC (1 mg/kg, 3 h, dose level High): 155 mg/dL
K (1 mg/kg, 3 h, dose level High): 4.2 meq/L
LDH (1 mg/kg, 3 h, dose level High): 295.6 IU/L
Na (1 mg/kg, 3 h, dose level High): 141.3 meq/L
PL (1 mg/kg, 3 h, dose level High): 99 mg/dL
RALB (1 mg/kg, 3 h, dose level High): 3.7 g/dL
TBIL (1 mg/kg, 3 h, dose level High): 0.012 mg/dL
TC (1 mg/kg, 3 h, dose level High): 63.6 mg/dL
TP (1 mg/kg, 3 h, dose level High): 5 g/dL
gamma-GTP (1 mg/kg, 3 h, dose level High): 0.8 IU/L
TERMINAL_BW (1 mg/kg, 6 h, dose level High): 226.8 g
Bas (1 mg/kg, 6 h, dose level High): 0%
Eos (1 mg/kg, 6 h, dose level High): 0.2%
Hb (1 mg/kg, 6 h, dose level High): 14.2 g/dL
Ht (1 mg/kg, 6 h, dose level High): 39.8%
Lym (1 mg/kg, 6 h, dose level High): 61%
MCH (1 mg/kg, 6 h, dose level High): 22.8 pg
MCHC (1 mg/kg, 6 h, dose level High): 35.7%
MCV (1 mg/kg, 6 h, dose level High): 63.8 fL
Mono (1 mg/kg, 6 h, dose level High): 2.2%
Neu (1 mg/kg, 6 h, dose level High): 35.6%
Plat (1 mg/kg, 6 h, dose level High): 113.4 x10_4/uL
RBC (1 mg/kg, 6 h, dose level High): 623.4 x10_4/ul
Ret (1 mg/kg, 6 h, dose level High): 8.3%
KIDNEY_L (1 mg/kg, 6 h, dose level High): 1 g
KIDNEY_R (1 mg/kg, 6 h, dose level High): 1 g
KIDNEY_TOTAL (1 mg/kg, 6 h, dose level High): 1.9 g
ALT (1 mg/kg, 6 h, dose level High): 116.4 IU/L
AST (1 mg/kg, 6 h, dose level High): 191.4 IU/L
CRE (1 mg/kg, 6 h, dose level High): 0.2 mg/dL
DBIL (1 mg/kg, 6 h, dose level High): 0.006 mg/dL
GLC (1 mg/kg, 6 h, dose level High): 148.2 mg/dL
K (1 mg/kg, 6 h, dose level High): 4.4 meq/L
LDH (1 mg/kg, 6 h, dose level High): 314.4 IU/L
Na (1 mg/kg, 6 h, dose level High): 141.2 meq/L
PL (1 mg/kg, 6 h, dose level High): 78.4 mg/dL
RALB (1 mg/kg, 6 h, dose level High): 3.7 g/dL
TBIL (1 mg/kg, 6 h, dose level High): 0.008 mg/dL
TC (1 mg/kg, 6 h, dose level High): 44.6 mg/dL
TP (1 mg/kg, 6 h, dose level High): 4.9 g/dL
gamma-GTP (1 mg/kg, 6 h, dose level High): 0.6 IU/L
TERMINAL_BW (1 mg/kg, 9 h, dose level High): 222.8 g
Bas (1 mg/kg, 9 h, dose level High): 0%
Eos (1 mg/kg, 9 h, dose level High): 0.8%
Hb (1 mg/kg, 9 h, dose level High): 14.3 g/dL
Ht (1 mg/kg, 9 h, dose level High): 40.6%
Lym (1 mg/kg, 9 h, dose level High): 49%
MCH (1 mg/kg, 9 h, dose level High): 23 pg
MCHC (1 mg/kg, 9 h, dose level High): 35.2%
MCV (1 mg/kg, 9 h, dose level High): 65.2 fL
Mono (1 mg/kg, 9 h, dose level High): 2%
Neu (1 mg/kg, 9 h, dose level High): 48.2%
RBC (1 mg/kg, 9 h, dose level High): 622 x10_4/ul
Ret (1 mg/kg, 9 h, dose level High): 8.2%
KIDNEY_L (1 mg/kg, 9 h, dose level High): 1 g
KIDNEY_R (1 mg/kg, 9 h, dose level High): 1 g
KIDNEY_TOTAL (1 mg/kg, 9 h, dose level High): 2 g
ALT (1 mg/kg, 9 h, dose level High): 122.2 IU/L
AST (1 mg/kg, 9 h, dose level High): 182 IU/L
CRE (1 mg/kg, 9 h, dose level High): 0.2 mg/dL
DBIL (1 mg/kg, 9 h, dose level High): 0.014 mg/dL
GLC (1 mg/kg, 9 h, dose level High): 150.4 mg/dL
K (1 mg/kg, 9 h, dose level High): 4 meq/L
LDH (1 mg/kg, 9 h, dose level High): 262 IU/L
Na (1 mg/kg, 9 h, dose level High): 140.9 meq/L
PL (1 mg/kg, 9 h, dose level High): 74 mg/dL
RALB (1 mg/kg, 9 h, dose level High): 3.6 g/dL
TBIL (1 mg/kg, 9 h, dose level High): 0.02 mg/dL
TC (1 mg/kg, 9 h, dose level High): 36.2 mg/dL
TP (1 mg/kg, 9 h, dose level High): 4.7 g/dL
gamma-GTP (1 mg/kg, 9 h, dose level High): 0.8 IU/L
TERMINAL_BW (1 mg/kg, 24 h, dose level High): 215.1 g
Bas (1 mg/kg, 24 h, dose level High): 0%
Eos (1 mg/kg, 24 h, dose level High): 0%
Hb (1 mg/kg, 24 h, dose level High): 12.6 g/dL
Ht (1 mg/kg, 24 h, dose level High): 35.2%
Lym (1 mg/kg, 24 h, dose level High): 42%
MCH (1 mg/kg, 24 h, dose level High): 23.4 pg
MCHC (1 mg/kg, 24 h, dose level High): 35.8%
MCV (1 mg/kg, 24 h, dose level High): 65.5 fL
Mono (1 mg/kg, 24 h, dose level High): 2.7%
Neu (1 mg/kg, 24 h, dose level High): 54%
Plat (1 mg/kg, 24 h, dose level High): 89 x10_4/uL
RBC (1 mg/kg, 24 h, dose level High): 538.3 x10_4/ul
Ret (1 mg/kg, 24 h, dose level High): 5.4%
KIDNEY_L (1 mg/kg, 24 h, dose level High): 1 g
KIDNEY_R (1 mg/kg, 24 h, dose level High): 1 g
KIDNEY_TOTAL (1 mg/kg, 24 h, dose level High): 2 g
ALT (1 mg/kg, 24 h, dose level High): 163 IU/L
AST (1 mg/kg, 24 h, dose level High): 368.7 IU/L
CRE (1 mg/kg, 24 h, dose level High): 0.2 mg/dL
DBIL (1 mg/kg, 24 h, dose level High): 0.5 mg/dL
GLC (1 mg/kg, 24 h, dose level High): 134.7 mg/dL
K (1 mg/kg, 24 h, dose level High): 4 meq/L
LDH (1 mg/kg, 24 h, dose level High): 922.3 IU/L
Na (1 mg/kg, 24 h, dose level High): 135.5 meq/L
PL (1 mg/kg, 24 h, dose level High): 100.3 mg/dL
RALB (1 mg/kg, 24 h, dose level High): 2.7 g/dL
TBIL (1 mg/kg, 24 h, dose level High): 0.5 mg/dL
TC (1 mg/kg, 24 h, dose level High): 41 mg/dL
TP (1 mg/kg, 24 h, dose level High): 3.9 g/dL
gamma-GTP (1 mg/kg, 24 h, dose level High): 4.3 IU/L
